Legend:
colon cancer cells = settings: preclinical studies, Kapitza et al. 2005; cited from earlier work
cancer = settings: cited from earlier work
[1] = system: Hep3B liver carcinoma xenograft; test: Hep3B liver carcinoma xenograft assay, survival; type: in vivo, CB17 SCID mice; settings: SCID mice, test drug 30 mg/kg i.v. day 1 and 8, sorafenib 25 mg/kg p.o. days 1-5 and 8-12, control 33 days
Method: Xenograft Assay: CB17 severe combined immunodeficient (SCID) female mice were used for all in vivo studies. The mice received food and water ad libitum. For tumor application, logarithmically growing Hep3B cells in cell culture were collected by trypsinization and washed once in serum-free culture medium. The cells were then pelleted and resuspended in culture medium to a final cell count of 2×10^7/ml. 50 μl of the cell suspension was injected s.c. in the right flank of each mouse. Treatment started when all animals in the study had established tumors of a size of about 3×3 mm.
Sorafenib (LC Laboratories, Woburn, Mass., USA) was dissolved in DMSO (50 mg/ml), further diluted in Cremophor EL/95% ethanol (50:50; Sigma), which was followed by a 1:4 dilution in water. 100 μl sorafenib was administered p.o. once daily at 5 consecutive days for two weeks at a dose of 25 mg/kg body weight (days 1-5 and days 8-12).
Tumor size was calculated using the equation (l×w^2)/2, where l and w refer to the larger and smaller dimensions, respectively, of the tumor. 4 mice were used in each group for each data point.

[Cl-].[Cl-].[Cl-].[Cl-].[Ru+3].c1ccc2[nH][nH+]cc2c1.c1ccc2[nH]ncc2c1.c1ccc2[nH]ncc2c1 [KP1019, indazolium trans-[tetrachlorobis(1H-indazole)ruthenate (III)]]
inducing apoptosis in colon cancer cells (colon cancer cells): effective in inducing apoptosis
anti-cancer activities in a phase I clinical trial (cancer): some anti-cancer activities

[Cl][Ru-]([Cl])([Cl])[Cl].[Na+].c1ccc2[nH]ncc2c1.c1ccc2[nH]ncc2c1 [Test drug]
inducing apoptosis in colon cancer cells (colon cancer cells): effective in inducing apoptosis
increase in life span / mean survival vs. control [1]: 2.4 fold
mean survival [1]: 80 days

CNC(=O)c1cc(Oc2ccc(NC(=O)Nc3ccc(Cl)c(C(F)(F)F)c3)cc2)ccn1 [sorafenib, reference compound]
increase in life span / mean survival vs. control [1]: 1.9 fold
mean survival [1]: 60 days
